Reference: ChEMBL document CHEMBL1134903, “Synthesis and SAR of azalide 3,6-ketal aromatic derivatives as potent Gram-positive and Gram-negative antibacterial agents” (Bioorg Med Chem Lett, 2002)
Converted amounts (≈) assume the structure as drawn.

Assays:
Type in all cases: functional
Staphylococcus aureus [1] = experiment: Effective dose required to inhibit Staphylococcus aureus intraperitoneal (IP) infection model
Escherichia coli = experiment: Minimum inhibitory concentration against Escherichia coli
Staphylococcus aureus [2] = experiment: Colony forming units of Staphylococcus aureus intramammary infection (IMI) model was determined at a dose of 15 mg/kg
Pasteurella multocida = experiment: Minimum inhibitory concentration against Pasteurella multocida
Staphylococcus aureus [3] = experiment: Minimum inhibitory concentration against Staphylococcus aureus

Compound | ED50 (Staphylococcus aureus [1]) [mg/kg] | MIC (Escherichia coli) [µg/mL] | Log CFU (Staphylococcus aureus [2]) | MIC (Pasteurella multocida) [µg/mL] | MIC (Staphylococcus aureus [3]) [µg/mL]
CC[C@H]1OC(=O)[C@H](C)[C@H]2OC3(CCN(C(=O)c4cccc(O)n4)CC3)O[C@](C)(C[C@@H](C)CN[C@H](C)[C@@H](O)[C@]1(C)O)[C@H](O[C@@H]1O[C@H](C)C[C@H](N(C)C)[C@H]1O)[C@H]2C | 19 | 6.25 (≈ 8.02 µM) | 9.7 | 0.3 (≈ 0.385 µM) | 3.13 (≈ 4.02 µM)
CC[C@H]1OC(=O)[C@H](C)[C@H]2OC3(CCN(C(=O)c4ccccn4)CC3)O[C@](C)(C[C@@H](C)CN[C@H](C)[C@@H](O)[C@]1(C)O)[C@H](O[C@@H]1O[C@H](C)C[C@H](N(C)C)[C@H]1O)[C@H]2C | 7.6 | 1.56 (≈ 2.04 µM) | 3.5 | 0.1 (≈ 0.131 µM) | 0.78 (≈ 1.02 µM)
CC[C@H]1OC(=O)[C@H](C)[C@H]2OC3(CCN(CCc4ccc(OC)cc4)CC3)O[C@](C)(C[C@@H](C)CN(C)[C@H](C)[C@@H](O)[C@]1(C)O)[C@H](O[C@@H]1O[C@H](C)C[C@H](N(C)C)[C@H]1O)[C@H]2C | > 20 | 0.39 (≈ 0.484 µM) | 9.7 | 0.03 (≈ 0.0372 µM) | 0.39 (≈ 0.484 µM)
CC[C@H]1OC(=O)[C@H](C)[C@H]2OC3(CCN(C(=O)c4cccnc4Cl)CC3)O[C@](C)(C[C@@H](C)CN[C@H](C)[C@@H](O)[C@]1(C)O)[C@H](O[C@@H]1O[C@H](C)C[C@H](N(C)C)[C@H]1O)[C@H]2C | 9.4 | 3.13 (≈ 3.93 µM) | 4.4 | 0.1 (≈ 0.125 µM) | 1.56 (≈ 1.96 µM)
